The record followed here is the SangsterLogP compilation.

For the data set the following is noted: for logD: pH 2.0.

As usually defined, the logP is the decadic logarithm of the partition coefficient of the neutral form, usually between octanol and water. The low end stands for lower lipophilicity, the high end for higher lipophilicity. Take `O=C(COC(=O)c1ccccc1)NC(CO)(CO)CO`: the logP stood at 0.25.

Compound `CCCCNC(=O)COC(=O)c1ccccc1` yielded a logP of 2.36.

`NC(=O)COC(=O)c1ccccc1` gave a logP of 0.69.

Turning to `CC(NC(=O)COC(=O)c1ccccc1)C(N)=O` (stereo unspecified), the logP was determined as 0.42.

For `CNC(=O)COC(=O)c1ccccc1`, the logP worked out at 0.99.

The compound `CC(=O)N(C)C(=O)COC(=O)c1ccccc1` had a logP of 1.58.

In turn, `CC(C)(C)NC(=O)COC(=O)c1ccccc1` returned a log partition coefficient (logP) of 2.26.

Compound `CCCNC(=O)COC(=O)c1ccccc1` returned a logP of 1.88.

Regarding `CC(O)CN(CC(C)O)C(=O)COC(=O)c1ccccc1` (stereo unspecified), the logP stood at 0.66.

The compound `O=C(OCC(=O)N1CCOCC1)c1ccccc1` displayed a logP of 0.9.

In turn, `COCCN(CCOC)C(=O)COC(=O)c1ccccc1` showed a logP of 1.28.

`O=C(OCC(=O)N1CCCCC1)c1ccccc1`: the logP came out at 1.95.

`O=C(OCC(=O)N1CCC(O)CC1)c1ccccc1` returned a logP of 0.63.

`CC(=O)N(C)CCOC(=O)c1ccccc1` yielded a logP of 1.24.

As for `CCNC(=O)COC(=O)c1ccccc1`, the logP worked out at 1.28.

On to `CC(C)NC(=O)COC(=O)c1ccccc1`, for which the logP turned out to be 1.73.

One may read the logD as lipophilicity at a set pH, counting ionised and neutral species. A higher logD goes with a more lipophilic compound. As to `O=C(OCC(=O)N1CCC1C(=O)O)c1ccccc1` (stereo unspecified), the logD came out at 0.79.

`C=CCN(CC=C)C(=O)COC(=O)c1ccccc1` came in with a logP of 2.34.

Take `NC(=O)C1CCCN1C(=O)COC(=O)c1ccccc1` (stereo unspecified): the logP stood at 0.2.

For the compound `CN(CC(=O)O)C(=O)COC(=O)c1ccccc1`, the logD worked out at 0.67.

`CCCCCCN(CCCCCC)C(=O)COC(=O)c1ccccc1` gave a lipophilicity (logP) of 6.53.

In the case of `CCCCCCN(C)C(=O)COC(=O)c1ccccc1`, the logP worked out at 2.99.

Take `CCN(CC)C(=O)C(C)OC(=O)c1ccccc1` (stereo unspecified): the logP came out at 2.3.

The compound `CCC1CCCCN1C(=O)COC(=O)c1ccccc1` (stereo unspecified) returned a logP of 2.62.

`CCCCCCNC(=O)COC(=O)c1ccccc1` returned a logP of 2.81.

Compound `CC(=O)NC(=O)COC(=O)c1ccccc1` came in with a logP of 1.24.
